Results: ChEMBL document CHEMBL1201862, “PubChem BioAssay data set” (2004)
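How tested: cells in 96-well plates exposed to compound for 48 hours at five concentrations. Abbreviation: GI50, concentration required for 50% inhibition of growth.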 Active and inactive are the calls of the source. No stated cut-off is given here; in the data, active = GI50 up to about 1.1 µM and inactive = higher.

How the values were obtained:
Assay in all cases: DTP human tumour cell line panel, 48 h
[1] = tested on: T47D
[2] = tested on: MDA-MB-435
[3] = tested on: CCRF-CEM
[4] = tested on: SK-MEL-2
[5] = tested on: LOX IMVI
[6] = tested on: ACHN
[7] = tested on: HT-29
[8] = tested on: Malme-3M
[9] = tested on: NCI-H460
[10] = tested on: SK-OV-3
[11] = tested on: COLO 205
[12] = tested on: SF-295
[13] = tested on: U-251
[14] = tested on: OVCAR-4
[15] = tested on: OVCAR-8
[16] = tested on: PC-3
[17] = tested on: RPMI-8226
[18] = tested on: SR
[19] = tested on: NCI-H226
[20] = tested on: TK-10
[21] = tested on: SK-MEL-5
[22] = tested on: M14
[23] = tested on: HOP-92
[24] = tested on: EKVX
[25] = tested on: NCI/ADR-RES
[26] = tested on: MDA-N
[27] = tested on: SNB-19
[28] = tested on: K562
[29] = tested on: HL-60
[30] = tested on: MOLT-4
[31] = tested on: SK-MEL-28
[32] = tested on: UACC-257
[33] = tested on: A498
[34] = tested on: SW-620
[35] = tested on: A549
[36] = tested on: HCT-15
[37] = tested on: KM12
[38] = tested on: IGROV-1
[39] = tested on: MCF7
[40] = tested on: 786-0
[41] = tested on: SNB-75
[42] = tested on: MDA-MB-231
[43] = tested on: Hs-578T
[44] = tested on: OVCAR-5
[45] = tested on: CAKI-1
[46] = tested on: SF-268
[47] = tested on: NCI-H522
[48] = tested on: UO-31
[49] = tested on: BT-549
[50] = tested on: RXF 393
[51] = tested on: UACC-62
[52] = tested on: OVCAR-3
[53] = tested on: NCI-H23
[54] = tested on: DU-145
[55] = tested on: HOP-62
[56] = tested on: HCT-116
[57] = tested on: SN12C

In the case of COc1cc(C2c3cc4c(cc3C3OC[C@@H]2C3CO)OCO4)cc(OC)c1OC (some centres undefined), the GI50 [1] is reported as > 100 µM (inactive), the GI50 [2] is reported as 6.81 µM (inactive) and the GI50 [3] is reported as 23.4 µM (inactive). For the same compound, the GI50 [4] was 40.2 µM (inactive), the GI50 [5] was 31.2 µM (inactive) and the GI50 [6] was 80.4 µM (inactive). The GI50 [7] was 28.4 µM (inactive), the GI50 [8] was 67.6 µM (inactive) and the GI50 [9] was 20.3 µM (inactive). The GI50 [10] was 54.2 µM (inactive), the GI50 [11] was 18.4 µM (inactive) and the GI50 [12] was 28.8 µM (inactive). The GI50 [13] was 34.7 µM (inactive), the GI50 [14] was 71.1 µM (inactive) and the GI50 [15] was 40.7 µM (inactive). The GI50 [16] was 49.3 µM (inactive), the GI50 [17] was 38.6 µM (inactive) and the GI50 [18] was 13.3 µM (inactive). The GI50 [19] was 20.2 µM (inactive), the GI50 [20] was 37.5 µM (inactive) and the GI50 [21] was 11.5 µM (inactive). The GI50 [22] was 31.3 µM (inactive), the GI50 [23] was > 100 µM (inactive) and the GI50 [24] was 41.2 µM (inactive). The GI50 [25] was 20.1 µM (inactive), the GI50 [26] was 8.28 µM (inactive) and the GI50 [27] was 57.3 µM (inactive). The GI50 [28] was 24.9 µM (inactive), the GI50 [29] was 2.66 µM (inactive) and the GI50 [30] was 33.1 µM (inactive). For the same compound, the GI50 [31] was > 100 µM (inactive), the GI50 [32] was 18.2 µM (inactive) and the GI50 [33] was 42 µM (inactive). For the same compound, the GI50 [34] was 34 µM (inactive), the GI50 [35] was 44.7 µM (inactive) and the GI50 [36] was 23.3 µM. For the same compound, the GI50 [37] was 23 µM (inactive), the GI50 [38] was 43.1 µM (inactive) and the GI50 [39] was 35.2 µM (inactive). The GI50 [40] was 43.1 µM (inactive), the GI50 [41] was 25.6 µM (inactive) and the GI50 [42] was 38.1 µM (inactive). The GI50 [43] was 34.4 µM (inactive), the GI50 [44] was 60.5 µM (inactive) and the GI50 [45] was 78.7 µM (inactive). The GI50 [46] was 31.3 µM (inactive), the GI50 [47] was 23 µM (inactive) and the GI50 [48] was 45.4 µM (inactive). The GI50 [49] was 29.9 µM (inactive) and the GI50 [50] was 37.6 µM (inactive).

Cc1cn(C2CC(OC(=O)c3ccc(Cl)cc3)C(COC(=O)c3ccc(Cl)cc3)O2)c(=O)[nH]c1=O (centres undefined) was tested, and the GI50 [1] was > 100 µM (inactive), the GI50 [2] was > 100 µM (inactive) and the GI50 [3] was > 100 µM (inactive). The GI50 [4] was > 100 µM (inactive), the GI50 [5] was > 100 µM (inactive) and the GI50 [6] was > 100 µM (inactive). For the same compound, the GI50 [7] was > 100 µM (inactive), the GI50 [8] was > 100 µM (inactive) and the GI50 [9] was > 100 µM (inactive). The GI50 [10] was > 100 µM (inactive), the GI50 [11] was > 100 µM (inactive) and the GI50 [12] was > 100 µM (inactive). The GI50 [13] was > 100 µM (inactive), the GI50 [14] was > 100 µM (inactive) and the GI50 [15] was > 100 µM (inactive). The GI50 [51] was > 100 µM (inactive), the GI50 [16] was > 100 µM (inactive) and the GI50 [17] was > 100 µM (inactive). For the same compound, the GI50 [52] was > 100 µM (inactive), the GI50 [18] was > 100 µM (inactive) and the GI50 [53] was > 100 µM (inactive). The GI50 [19] was > 100 µM (inactive), the GI50 [20] was > 100 µM (inactive) and the GI50 [21] was > 100 µM (inactive). The GI50 [22] was > 100 µM (inactive), the GI50 [23] was > 100 µM (inactive) and the GI50 [24] was > 100 µM (inactive). For the same compound, the GI50 [25] was > 100 µM (inactive), the GI50 [26] was > 100 µM (inactive) and the GI50 [27] was > 100 µM (inactive). The GI50 [28] was > 100 µM (inactive), the GI50 [29] was > 100 µM (inactive) and the GI50 [30] was > 100 µM (inactive). The GI50 [31] was > 100 µM (inactive), the GI50 [32] was > 100 µM (inactive) and the GI50 [34] was > 100 µM (inactive). For the same compound, the GI50 [54] was > 100 µM (inactive), the GI50 [35] was > 100 µM (inactive) and the GI50 [36] was > 100 µM. The GI50 [37] was > 100 µM (inactive), the GI50 [38] was > 100 µM (inactive) and the GI50 [39] was > 100 µM (inactive). The GI50 [40] was > 100 µM (inactive), the GI50 [41] was > 100 µM (inactive) and the GI50 [43] was > 100 µM (inactive). The GI50 [44] was > 100 µM (inactive), the GI50 [45] was > 100 µM (inactive) and the GI50 [46] was > 100 µM (inactive). For the same compound, the GI50 [47] was > 100 µM (inactive), the GI50 [48] was > 100 µM (inactive) and the GI50 [55] was > 100 µM (inactive). The GI50 [49] was > 100 µM (inactive), the GI50 [56] was > 100 µM (inactive) and the GI50 [57] was > 100 µM (inactive).
